target: 5-hydroxytryptamine receptors of the sub-type 1 (5-HT1 receptor); experiment: Affinity to the 5-HT1 receptor: receptor binding studies using calf hippocampus membrane preparations, 3H-serotonin as radioactively labelled ligand; details: calf hippocampus membranes; 3H-serotonin radioligand
Description: In Table 1, as an example, the high affinity of the compounds according to the invention to 5-hydroxytryptamine receptors of the sub-type 1 is shown. The values specified are data which were determined from receptor binding studies using calf hippocampus membrane preparations. 3 H-serotonin was used for this purpose as radioactively labelled ligand.

| SMILES | Ki [µM] |
| --- | --- |
| CCCN(CCC)C1CCc2cccc(Cl)c2C1 (stereo not shown) [Example 1, 2-Dipropylamino8-chloro-1,2,3,4-tetrahydronaphthalene] | 0.02 |
| CCCN(CCC)C1CCc2cccc(Br)c2C1 (stereo not shown) [Example 2, 2-Dipropylamino-8-bromo-1,2,3,4-tetrahydronaphthalene] | 0.013 |
| CCCN(CCC)C1CCc2cccc(C(N)=O)c2C1 (stereo not shown) [Example 6, 2-Dipropylamino-8-carbamoyl-1,2,3,4-tetrahydronaphthalene] | 0.007 |
| CCCCS(=O)(=O)NCCOc1cccc2c1CC(N(CCC)CCC)CC2 (stereo not shown) [Example 26, 2-Dipropylamino-8-(2-butanesulphonamidoethoxy)-1,2,3,4-tetrahydronaphthalene] | 0.017 |
| CCCN(CCC)C1CCc2cccc(OCCNC(=O)OCC)c2C1 (stereo not shown) [Example 28, 2-Dipropylamino-8-(2-ethoxycarbonylamido-ethoxy)1,2,3,4-tetrahydronaphthalene] | 0.004 |
| CCCN(CCC)C1CCc2cccc(OCCNC(N)=O)c2C1 (stereo not shown) [Example 30, 2-Dipropylamino-8-ureidoethoxy-1,2,3,4-tetrahydronaphthalene] | 0.03 |
| CCCN(CCC)C1CCc2cccc(OCCNC=O)c2C1 (stereo not shown) [Example 33, 2-Dipropylamino-8-(2-formylamido-ethoxy)-1,2,3,4-tetrahydronaphthalene] | 0.019 |
| CCCN(CCC)C1CCc2cccc(CCNC(=O)OCc3ccccc3)c2C1 (stereo not shown) [Example 42, 2-Dipropylamino-8-(2-benzyloxycarbonylamido-ethyl)-2,3,4-tetrahydronaphthalene] | 0.005 |
| CCCN(CCC)C1CCc2cccc(OC)c2C1 (stereo not shown) [R^1 =OCH3, R^2 =R^3 =nC3 H7, reference compound] | 0.003 |
| CCCN(CCC)C1CCc2cccc(O)c2C1 (stereo not shown) [R^1 =OH, R^2 =R^3 =nC3 H7, reference compound] | 0.002 |
